Measurements: patent publication EP0908457B1, “3-(1,2-benzisothiazol- and isoxazol-5-Y1)-2,4(1H,3H)-pyrimidinedione or thione and 3-(1,2-benzisothiazol- and isoxazol-5-y1)-4(3H)-pyrimidinone or thione herbicidal agents” (BASF AKTIENGESELLSCHAFT, priority 1997, dated 1999)
Values belong to the molecule of their own block, whether it stands above or below them.

What was measured:
[1] = tested on: Monochoria vaginalis, Presl.; test: Preemergence weed control under flooded paddy conditions, MOOVA (Monochoria); assay type: in vivo; settings: flooded paddy; for MOOVA: herbicidal effect rating 0-9, three to four weeks after treatment; for herbicidal effect rating, MOOVA: meaning of each grade not given here
[2] = tested on: Oryza sativa, (L.) Tebonnet; settings: in vivo; for herbicidal effect rating ORYSAT: meaning of each grade not given here
Sagittaria pygmaea, L. = test: Preemergence weed control under flooded paddy conditions, SAGPY (Arrowhead (Pygmaea)); assay type: in vivo; settings: flooded paddy; for SAGPY: herbicidal effect rating 0-9, three to four weeks after treatment; for herbicidal effect rating, SAGPY: meaning of each grade not given here
[3] = tested on: Echinochloa oryzoides (Ard.) Fritsch.; test: Preemergence weed control under flooded paddy conditions, ECHORC (Watergrass (Calif.)); assay type: in vivo; settings: flooded paddy; for ECHORC: herbicidal effect rating 0-9, three to four weeks after treatment; for herbicidal effect rating, ECHORC: meaning of each grade not given here
Cyperus iria = test: Preemergence weed control under flooded paddy conditions, CYPIR (Rice Flatsedge); assay type: in vivo; settings: flooded paddy; for CYPIR: herbicidal effect rating 0-9, three to four weeks after treatment; for herbicidal effect rating, CYPIR: meaning of each grade not given here
[4] = tested on: Cyperus serotinus, Rottb.; test: Preemergence weed control under flooded paddy conditions, CYPSE (Flatsedge); assay type: in vivo; settings: for CYPSE: herbicidal effect rating 0-9, three to four weeks after treatment; for herbicidal effect rating, CYPSE: meaning of each grade not given here
[5] = 0.0320 kg/ha, preemergence weeds
[6] = 0.0620 kg/ha, preemergence weeds
[7] = 0.1250 kg/ha, preemergence weeds
[8] = 0.2500 kg/ha, preemergence weeds
[9] = Rate 0.0320 kg/ha, preemergence, rated 3-4 weeks after treatment
[10] = Rate 0.0620 kg/ha, preemergence, rated 3-4 weeks after treatment
[11] = Rate 0.1250 kg/ha, preemergence, rated 3-4 weeks after treatment
[12] = Rate 0.2500 kg/ha, preemergence, rated 3-4 weeks after treatment
[13] = Rate 0.5000 kg/ha, preemergence, rated 3-4 weeks after treatment
[14] = 0.0313 kg/ha, preemergence, rated three to four weeks after treatment
[15] = 0.0625 kg/ha, preemergence, rated three to four weeks after treatment
[16] = 0.1250 kg/ha, preemergence, rated three to four weeks after treatment
[17] = 0.2500 kg/ha, preemergence, rated three to four weeks after treatment
[18] = Rate 0.0320 kg/ha, preemergence, rated three to four weeks after treatment
[19] = Rate 0.0620 kg/ha, preemergence, rated three to four weeks after treatment
[20] = Rate 0.1250 kg/ha, preemergence, rated three to four weeks after treatment
[21] = Rate 0.2500 kg/ha, preemergence, rated three to four weeks after treatment
[22] = Rate 0.2500 kg/ha, preemergence weeds, rated three to four weeks after treatment

ORYSAT [2]: 9.0
Molecule: COC(OC)c1nsc2ccc(-n3c(=O)cc(C(F)(F)F)n(C)c3=O)cc12 [Example 453, 1,2-Benzisothiazole-3-carboxaldehyde, 5-[3,6-dihydro-3-methyl-2,6-dioxo-4-(trifluoromethyl)-1(2H)-pyrimidinyl]-, 3-(dimethylacetal)]
MOOVA [1, 5]: 9.0 | MOOVA [1, 6]: 9.0 | MOOVA [1, 7]: 9.0 | MOOVA [1, 8]: 9.0 | SAGPY (Sagittaria pygmaea, L.; [5]): 9.0 | SAGPY (Sagittaria pygmaea, L.; [6]): 9.0 | SAGPY (Sagittaria pygmaea, L.; [7]): 9.0 | SAGPY (Sagittaria pygmaea, L.; [8]): 9.0 | ECHORC [3, 5]: 9.0 | ECHORC [3, 6]: 9.0 | ECHORC [3, 7]: 9.0 | ECHORC [3, 8]: 9.0 | CYPIR (Cyperus iria; [5]): 9.0 | CYPIR (Cyperus iria; [6]): 9.0 | CYPIR (Cyperus iria; [7]): 9.0 | CYPIR (Cyperus iria; [8]): 9.0 | CYPSE [4, 5]: 9.0 | CYPSE [4, 6]: 9.0 | CYPSE [4, 7]: 9.0 | CYPSE [4, 8]: 9.0

Molecule: Cc1ccc(OCC(=O)c2ccccc2)c(-c2nsc3ccc(-n4c(=O)cc(C(F)(F)F)n(C)c4=O)cc23)c1 [Example 537, 2,4(1H,3H)-Pyrimidinedione, 1-methyl-3-{3-[6-(phenacyloxy)-m-tolyl]-1,2-benzisothiazol-5-yl}-6-(trifluoromethyl)-]
herbicidal effect rating, MOOVA [1, 9]: 9.0 | herbicidal effect rating, MOOVA [1, 10]: 9.0 | herbicidal effect rating, MOOVA [1, 11]: 9.0 | herbicidal effect rating, MOOVA [1, 12]: 9.0 | herbicidal effect rating, MOOVA [1, 13]: 9.0 | herbicidal effect rating ORYSAT [2]: 0.0 | herbicidal effect rating, SAGPY (Sagittaria pygmaea, L.; [9]): 0.0 | herbicidal effect rating, SAGPY (Sagittaria pygmaea, L.; [10]): 0.0 | herbicidal effect rating, SAGPY (Sagittaria pygmaea, L.; [11]): 0.0 | herbicidal effect rating, SAGPY (Sagittaria pygmaea, L.; [12]): 0.0 | herbicidal effect rating, SAGPY (Sagittaria pygmaea, L.; [13]): 0.0 | herbicidal effect rating, ECHORC [3, 9]: 3.4 | herbicidal effect rating, ECHORC [3, 10]: 4.4 | herbicidal effect rating, ECHORC [3, 11]: 5.0 | herbicidal effect rating, ECHORC [3, 12]: 9.0 | herbicidal effect rating, ECHORC [3, 13]: 9.0 | herbicidal effect rating, CYPIR (Cyperus iria; [9]): 0.0 | herbicidal effect rating, CYPIR (Cyperus iria; [10]): 0.0 | herbicidal effect rating, CYPIR (Cyperus iria; [11]): 1.0 | herbicidal effect rating, CYPIR (Cyperus iria; [12]): 4.0 | herbicidal effect rating, CYPIR (Cyperus iria; [13]): 9.0 | herbicidal effect rating, CYPSE [4, 9]: 0.0 | herbicidal effect rating, CYPSE [4, 10]: 0.0 | herbicidal effect rating, CYPSE [4, 11]: 0.0 | herbicidal effect rating, CYPSE [4, 12]: 0.0 | herbicidal effect rating, CYPSE [4, 13]: 0.0

Molecule: 1-Methyl-3-(2-methyl-3-oxo-1,2-benzisoxazolin-5-yl)-6-(trifluoromethyl)-2,4(1H,3H)-pyrimidinedione [Example 44]
herbicidal effect rating, MOOVA [1, 14]: 0.0 | herbicidal effect rating, MOOVA [1, 15]: 0.0 | herbicidal effect rating, MOOVA [1, 16]: 0.0 | herbicidal effect rating, MOOVA [1, 17]: 0.0 | herbicidal effect rating, ORYSAT (rice tolerance) [2]: 0.0 | herbicidal effect rating, SAGPY (Sagittaria pygmaea, L.; [14]): 0.0 | herbicidal effect rating, SAGPY (Sagittaria pygmaea, L.; [15]): 0.0 | herbicidal effect rating, SAGPY (Sagittaria pygmaea, L.; [16]): 0.0 | herbicidal effect rating, SAGPY (Sagittaria pygmaea, L.; [17]): 0.0 | herbicidal effect rating, ECHORC [3, 14]: 0.0 | herbicidal effect rating, ECHORC [3, 15]: 0.0 | herbicidal effect rating, ECHORC [3, 16]: 0.0 | herbicidal effect rating, ECHORC [3, 17]: 0.0 | herbicidal effect rating, CYPIR (Cyperus iria; [14]): 0.0 | herbicidal effect rating, CYPIR (Cyperus iria; [15]): 0.0 | herbicidal effect rating, CYPIR (Cyperus iria; [16]): 0.0 | herbicidal effect rating, CYPIR (Cyperus iria; [17]): 0.0 | herbicidal effect rating, CYPSE [4, 14]: 0.0 | herbicidal effect rating, CYPSE [4, 15]: 0.0 | herbicidal effect rating, CYPSE [4, 16]: 0.0 | herbicidal effect rating, CYPSE [4, 17]: 0.0

Molecule: Cn1c(C(F)(F)F)cc(=O)n(-c2ccc3snc(CC=NO)c3c2)c1=O [Example 266, 1,2-Benzisothiazole-3-acetaldehyde, 5-[3,6-dihydro-3-methyl-2,6-dioxo-4-(trifluoromethyl)-1(2H)-pyrimidinyl]-, 3-oxime, (E)- and (Z)-]
MOOVA herbicidal effect rating [1, 18]: 9.0 | MOOVA herbicidal effect rating [1, 19]: 9.0 | MOOVA herbicidal effect rating [1, 20]: 9.0 | MOOVA herbicidal effect rating [1, 21]: 9.0 | ORYSAT herbicidal effect rating [2]: 0.0 | SAGPY herbicidal effect rating (Sagittaria pygmaea, L.; [18]): 0.0 | SAGPY herbicidal effect rating (Sagittaria pygmaea, L.; [19]): 0.0 | SAGPY herbicidal effect rating (Sagittaria pygmaea, L.; [20]): 0.0 | SAGPY herbicidal effect rating (Sagittaria pygmaea, L.; [21]): 0.0 | ECHORC herbicidal effect rating [3, 18]: 0.0 | ECHORC herbicidal effect rating [3, 19]: 0.0 | ECHORC herbicidal effect rating [3, 20]: 0.0 | ECHORC herbicidal effect rating [3, 21]: 0.0 | CYPIR herbicidal effect rating (Cyperus iria; [18]): 5.0 | CYPIR herbicidal effect rating (Cyperus iria; [19]): 5.0 | CYPIR herbicidal effect rating (Cyperus iria; [20]): 5.0 | CYPIR herbicidal effect rating (Cyperus iria; [21]): 9.0 | CYPSE herbicidal effect rating [4, 18]: 0.0 | CYPSE herbicidal effect rating [4, 19]: 0.0 | CYPSE herbicidal effect rating [4, 20]: 0.0 | CYPSE herbicidal effect rating [4, 21]: 3.0

Molecule: Cn1c(C(F)(F)F)cc(=O)n(-c2ccc3snc(CNS(C)(=O)=O)c3c2)c1=O [Example 305]
herbicidal effect rating, MOOVA [1, 22]: 0.0 | herbicidal effect rating ORYSAT [2]: 0.0 | herbicidal effect rating, SAGPY (Sagittaria pygmaea, L.; [22]): 0.0 | herbicidal effect rating, ECHORC [3, 22]: 0.0 | herbicidal effect rating, CYPIR (Cyperus iria; [22]): 0.0 | herbicidal effect rating, CYPSE [4, 22]: 0.0
